Experimental data taken from paper PMC11983664, “Preclinical Pharmacokinetic Assessment of a Promising Vasorelaxant, Analgesic, and Anti‐Inflammatory Prototype 5‐[1‐(4‐Fluorophenyl)‐1H‐pyrazol‐4‐yl]‐2H‐tetrazole (LQFM020) Through Selective Bioanalytical HPLC‐PDA‐Based Method” (Biomedical Chromatography, 2025).
Where “and” joins values, the source holds several entries; their conditions need not be identical. Identical values can stand only once. Entries after “also recorded” stand apart in the source; their conditions may differ. Like-named read-outs stand apart in the source and are kept apart here.

Columns and labels:
[1] = mouse, in vivo, po; cited from earlier work
[2] = Stability of LQFM020 in rat plasma (short-term, freeze-thaw, long-term); type: in vitro ADME; conditions: n = 3
Procedure: Bioanalytical method validation was conducted in accordance with the guideline of Brazilian Health Surveillance Agency (ANVISA) RDC 27/2012, analyzing several parameters, such as matrix effect, recovery, selectivity, linearity, precision and accuracy, and stabilities (short‐term, long‐term, and freezing/thawing cycles) (ANVISA [2012]).
Indeed, rat plasma concentrations (n = 3) of LQC and HQC presented a nonsignificant degradation below ±15% (RE), ranging from 89.2 ± 2.2% (short term) to 107.5 ± 1.8% (long term) at the end of storage condition times, as shown in Table 2.

[3] = Pharmacokinetic study after oral administration in rats; type: in vivo, male Wistar rats
Procedure: (§1) Male Wistar rats (250–300 g) obtained from Central Vivarium of Federal University of Goiás (UFG) were housed under a 12‐h light/dark cycle (22°C–23°C), with free access to food and water. This in vivo pharmacokinetic study was conducted in accordance with Ethical Principles in Animal Research, adopted by International Guiding Principles for Biomedical Research Involving Animals and approved by the Institutional Ethics in Research Committee at the UFG (Protocol CEUA/UFG 085/17). All efforts were made to minimize animal suffering as preconized by regulatory institutions.
(§2) LQFM020 was prepared in physiological solution containing DMSO 1% at dose of 10 mg/kg for intravenous administration (i.v., bolus), and then, blood samples (0.5 mL) were collected at 0, 0.5, 1, 2, 3, 4, 5, 6, and 24 h in heparinized microtubes. Oral administration (p.o.) was performed at LQFM020 dose of 9, 18, or 36 mg/kg prepared in physiological solution with DMSO 1%. Blood samples (0.5 mL) were collected at 0, 0.5, 1, 2, 3, 4, 5, 6, and 24 h in heparinized microtubes. Plasma samples were obtained by blood centrifugation (3000 g, 10 min) and were stored at −20°C.
(§3) LQFM020 pharmacokinetic parameters were obtained by non‐compartmental model, including peak plasma concentration (Cmax) and time to reach it (Tmax), elimination half‐life (t1/2), elimination constant (Kel), total area under the curve of plasma concentration versus time (AUCT), apparent distribution volume (Vd), clearance (Cl), and mean residence time (MRT). These pharmacokinetic parameters were calculated by Phoenix Connect 1.3.1 software (Certara, Princeton, NJ, USA).
LQFM020 absolute oral bioavailability F(%) was obtained applying AUCT and dose (D) from p.o. and i.v. administration, according to the equation: F%=AUCp.o./AUCi.v.×Di.v./Dp.o.×100

CYP3A4 = CYP3A4 (Homo sapiens, UniProt P08684); assay: CYP3A enzyme inhibition in vitro analysis (midazolam biotransformation, HPLC-PDA); type: in vitro ADME; conditions: LQFM020 100 μg/mL, midazolam 10 μg/mL, 37°C, 2 h
Chain of CYP3A4 (P08684 whole entry): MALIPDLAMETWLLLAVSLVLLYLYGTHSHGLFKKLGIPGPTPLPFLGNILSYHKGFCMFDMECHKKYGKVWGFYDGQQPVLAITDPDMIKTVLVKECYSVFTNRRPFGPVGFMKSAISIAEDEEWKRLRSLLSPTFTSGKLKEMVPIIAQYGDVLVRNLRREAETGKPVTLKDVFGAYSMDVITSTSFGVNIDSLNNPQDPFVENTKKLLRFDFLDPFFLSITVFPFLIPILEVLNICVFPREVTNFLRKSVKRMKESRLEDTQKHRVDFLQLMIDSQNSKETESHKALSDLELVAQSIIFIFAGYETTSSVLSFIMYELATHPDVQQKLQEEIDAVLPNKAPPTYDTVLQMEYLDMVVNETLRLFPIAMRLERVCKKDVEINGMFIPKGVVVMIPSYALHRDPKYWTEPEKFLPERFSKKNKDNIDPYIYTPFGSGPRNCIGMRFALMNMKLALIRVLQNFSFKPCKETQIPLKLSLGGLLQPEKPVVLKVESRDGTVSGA
Procedure: LQFM020 was evaluated for its ability to inhibit CYP3A4—the main subfamily responsible for drug metabolism in humans. […] Cold methanol was added after stirring these mixtures at 37°C for 2 h to stop the reaction and then centrifuged at 13,000 g for 10 min. The supernatant was filtered in Millex 0.22 μm pore and injected into HPLC system for the quantitation of midazolam. All samples were prepared in quintuplicate and analyzed by a HPLC‐PDA‐based method rigorously validated in our laboratory routine for the midazolam metabolites' quantification 1‐hydroxydazolam (1‐HMDZ) and 4‐hydroxydazolam (4‐HMDZ) (Ramirez De Oliveira et al. [2015]).

3T3 cell = test system: 3T3 cell; design: method as in de Oliveira et al. [2017]; conditions: 3T3 cells; ref de Oliveira et al. [2017]; cited from earlier work
[4] = Pharmacokinetic study after intravenous bolus administration in rats; type: in vivo, male Wistar rats; conditions: i.v. 10 mg/kg, male adult rats; for AUC(0-t) / half-life: male, Wistar, rat, plasma, iv
Procedure: as §1, §2, §3

[5] = design: method as in earlier work; conditions: oral; ref Davies et al. [2000]; Dhondt et al. [2017]; Gong et al. [2012]; cited from earlier work
[6] = Wistar, rat, plasma, oral 9 mg/kg, male adult rats, mean ± SEM, n = 3
[7] = Wistar, rat, plasma, oral 18 mg/kg, male adult rats, mean ± SEM, n = 3
[8] = Wistar, rat, plasma, oral 36 mg/kg, male adult rats, mean ± SEM, n = 3
[9] = individual animals 1-3, 10 mg/kg
[10] = 10 mg/kg, individual animals 1-3

Fc1ccc(-n2cc(-c3nn[nH]n3)cn2)cc1 [LQFM020, 5‐[1‐(4‐fluorophenyl)‐1H‐pyrazol‐4‐yl]‐2H‐tetrazole]
orally well tolerated dose [1]: ≤ 2000 mg/kg | Stability, Accuracy (RE) (Mean ± CV%) ([2]; freeze–thaw (3 cycles), nominal 0.75 μg/mL): 96.4 ± 2.6% | Stability, Accuracy (RE) (Mean ± CV%) ([2]; freeze–thaw (3 cycles), nominal 15 μg/mL): 96.0 ± 5.3% | Stability, Accuracy (RE) (Mean ± CV%) ([2]; long duration (30 days, −20°C), nominal 0.75 μg/mL): 102.1 ± 6.5% | Stability, Accuracy (RE) (Mean ± CV%) ([2]; long duration (30 days, −20°C), nominal 15 μg/mL): 107.5 ± 1.8% | Stability, Accuracy (RE) (Mean ± CV%) ([2]; short duration (RT, 4 h), nominal 0.75 μg/mL): 89.2 ± 2.2% | Stability, Accuracy (RE) (Mean ± CV%) ([2]; short duration (RT, 4 h), nominal 15 μg/mL): 94.5 ± 5.2% | AUC(0-t) [3, 6]: 69.8 ± 5.33 µg·h/mL | Cmax [3, 6]: 16600 ± 4410 ng/mL | Tmax [3, 6]: 1.66 ± 0.66 h | Vd/F [3, 6]: 0.86 ± 0.4 L/kg | half-life ([3]; Wistar, rat, plasma, oral 9 mg/kg, male adult rats, mean ± SEM, n = 3, read-out: t1/2 (converted)): 5.82 ± 2.35 h | AUC(0-t) [3, 7]: 110 ± 17.1 µg·h/mL | Cmax [3, 7]: 26600 ± 2030 ng/mL | Tmax [3, 7]: 0.83 ± 0.17 h | Vd/F [3, 7]: 1.44 ± 0.36 L/kg | half-life ([3]; Wistar, rat, plasma, oral 18 mg/kg, male adult rats, mean ± SEM, n = 3, read-out: t1/2 (converted)): 5.85 ± 0.96 h | AUC(0-t) [3, 8]: 287 ± 82.4 µg·h/mL | Cmax [3, 8]: 55200 ± 21100 ng/mL | Tmax [3, 8]: 1.67 ± 0.66 h | Vd/F [3, 8]: 1.16 ± 0.26 L/kg | half-life ([3]; Wistar, rat, plasma, oral 36 mg/kg, male adult rats, mean ± SEM, n = 3, read-out: t1/2 (converted)): 6.74 ± 2.47 h | bioavailability ([3]; male, Wistar, plasma, oral, rat, from AUC and dose of p.o. and i.v. (10 mg/kg) administration, read-out: absolute oral bioavailability F(%)): 46% | half-life ([3]; male, Wistar, rat, plasma, oral administration, rats, overall, read-out: elimination half-time (t1/2) (converted)): ~6 h | ClT ([3]; oral 9 mg/kg, male adult rats, mean ± SEM, n = 3): 158 ± 14 mL/day/kg | ClT ([3]; oral 18 mg/kg, male adult rats, mean ± SEM, n = 3): 230 ± 29 mL/day/kg | ClT ([3]; oral 36 mg/kg, male adult rats, mean ± SEM, n = 3): 216 ± 86 mL/day/kg | inhibition of CYP3A4 (peak areas of midazolam metabolites 1-HMDZ and 4-HMDZ vs negative control) (CYP3A4): no significant effect; also recorded: absence of inhibition; also recorded: does not change the biotransformation | concentrations reducing 3T3 cell viability (3T3 cell): 350 to 1400 µM | AUCT [4, 9]: 1064.89 µg·h/mL and 1314.07 µg·h/mL | ClT/F [4, 9]: 12 mL/day/kg and 13 mL/day/kg and 10 mL/day/kg | Vd/F [4, 9]: 0.032 L/kg and 0.041 L/kg and 0.036 L/kg | t1/2 [4, 9]: 3.06 h and 3.26 h | ClT/F ([4]; mean ± SEM, n = 3): 12 ± 0 mL/day/kg | Vd/F ([4]; mean ± SEM, n = 3): 0.03 ± 0.00 L/kg | t1/2 ([4]; mean ± SEM, n = 3, 10 mg/kg): 3.05 ± 0.12 h | AUC(0-t) [4, 10]: 1230 µg·h/mL | half-life [4, 10]: 2.83 h | AUC(0-t) ([4]; 10 mg/kg, mean ± SEM, n = 3): 1220 ± 77.9 µg·h/mL | half-life ([4]; 10 mg/kg, mean ± SEM, n = 3): ~3 h

Cc1ccc(-c2cc(C(F)(F)F)nn2-c2ccc(S(N)(=O)=O)cc2)cc1 [celecoxib]
Tmax [5]: 2 to 4 h
